Assay results taken from patent US10464939B2, “Deuterated triazolopyridazine as a kinase modulator” (Janssen Pharmaceutica NV, priority 2014, dated 2019).
Read-outs that look alike come from different tables or passages of the source.

Tests used:
[1] = In vivo pharmacokinetic determination of compound (I), compound A and their metabolites in plasma; set-up: species or system New Zealand White Rabbits; conditions: both sexes, New Zealand White, male and female rabbit; for AUC(0-inf) / AUC(0-t) / Cmax / Tmax / MRT: rabbit, po, 10 mg/kg; for MRT: read-out: MRT (mean residence time)
Description: In vivo pharmacokinetic determination of compound (I), compound A and their metabolites in New Zealand White Rabbits.
Male New Zealand rabbits (Crl: KBL (NZW), Charles River, France) and female New Zealand rabbits (NZW INRA A1077, Centre Lago) were used. Per compound (compound of formula (I) and compound A) one male and two female rabbits were used with a mean weight of 2.6±0.2 kg. A complete plasma concentration time-profile was obtained from each individual animal. Standard diet and tap water were available ad libitum. Compound of formula (I) and compound A were both dissolved in a 10% (w/v) SBE-B-CD (sulfobutyl ether-beta-cyclodextrin) research grade (Captisol) solution at a final concentration of 1 mg/ml. HCl and PVP K30 were added to facilitate dissolution of the compounds. After total dissolution, the pH was brought up to 2.6/2.7 with NaOH. The formulations were stored at room temperature, protected from light and analysed quantitatively with LC-MS/MS on the day of preparation. Stability of the formulations was checked on the day of dosing. Animals were dosed orally by gavage at 10 ml/kg to obtain a final dose of 10 mg/kg. From each individual dosed animal, blood samples were taken at 30 minutes, 1, 2, 4, 7 and 24 hours after oral administration. Blood was collected by multiple sampling from a lateral ear vein into Multivette® 600 K3E tubes (Sarstedt). Samples were placed immediately on melting ice and plasma was obtained following centrifugation at 4° C. for 10 minutes at approximately 1900×g. All samples were shielded from daylight and stored at ≤−18° C. prior to analysis. Plasma samples were analysed for compound (I), compound A, metabolite 1, metabolite 2, N-desmethyl metabolite 3 (which was calculated on the curve of N-desmethyl metabolite 4) and N-desmethyl metabolite 4 using a qualified research LC-MS/MS method. The key analytical performance (linearity, upper and lower limit of quantification, accuracy and precision) of the method was reported together with the plasma concentrations. The lower limit of quantification (LLOQ) for plasma was 1.00 ng/ml for all compounds. A limited pharmacokinetic analysis was performed using Phoenix™ Professional (Version 6.2.1). A non-compartmental analysis using the lin/log trapezoidal rule with lin/log interpolation was used for all data.

[2] = Solubility of Metabolite 2; assay type: physicochemical
Description: Solubility of Metabolite 2:

[3] = tested on: CHO Parental cells; experiment: Cytotoxicity test (PrestoBlue viability), CHO parental cells; assay type: cell-based, Chinese Hamster; conditions: for cytotoxic effects (in words): 100 μM, both CHO parental and OCT2 cells; for Cell Viability %: CHO parental cells, after 1 minute of incubation, compound of formula (I) 100 μM, Triton X-100 1%
Method: (§1) Cytotoxicity of the compound of formula (I) was determined at 100 μM, and this in both CHO parental and OCT2 cells. Also a 1% Triton-X100 condition was included, as a positive control cytotoxic reagent. After 1 minute of incubation the supernatant was aspirated, the dry cells washed twice with 1 mL HBSS^+/++10 mM Hepes pH 7.4 (37° C.). After aspiration of the buffer, a 1/10 dilution of the PrestoBlue Viability Reagent (Life Technologies) in HBSS^+/++10 mM Hepes pH 7.4 was added and plates were incubated for 60 minutes at 37° C., protected from light. Each well was sampled (150 μL) in a black 96-well plate and fluorescence was measured (Excitation: 560 nm/12 nm bandwith, Emission: 590 nm/12 nm bandwith).

[4] = tested on: CHO OCT2 cells; experiment: Cytotoxicity test (PrestoBlue viability), CHO OCT2 cells; assay type: cell-based, Chinese Hamster; conditions: after 1 minute of incubation, compound of formula (I) 100 μM, Triton X-100 1%
Method: as §1

[5] = tested on: EBC1; experiment: Proliferation assay with Alamar blue, EBC-1 cells; assay type: cell-based; conditions: Homo sapiens, EBC-1, 96 h, 4 days incubation
Method: (§2) Inhibition of Proliferation of Cancer Cells Carrying Met Amplification and Dependent on Met Signaling by the Compound of Formula (I)
(§3) Proliferation Assay with Alamar Blue
(§4) Cells were seeded out in a 96-well plate in 180 μl growth medium. Depending on the growth curve test the amount of cells per well was different for each cell line. The cells were incubated overnight in an incubator at 37° C. in a humidified 5% CO2 atmosphere. The next day: The compound plate was prepared and 4 μl of compound was added to 196 μl of pre-warmed medium. 20 μl of this was added to 180 μl of cells. This was incubated for 4 days after adding the compound at 37° C. in a humidified 5% CO2 atmosphere. After the 4 days 40 μl of Alamar blue solution was added. This was incubated at 37° C. in a humidified 5% CO2 atmosphere for 4 hours (depending on the cell line this was tested before at different hours of incubation during the growth curve test). After the 4 hours the fluorescence was measured at excitation 530 nm, emission 590 nm. The fluorescence of control (DMSO treatment) was taken as 100% and the fluorescence of cells incubated with compounds was calculated against the control in %. So a dose response curve could be made and a IC50 could be calculated.

[6] = Phase I, first-in-human trial of compound A; assay type: in vivo
Method: The safety, pharmacokinetics, pharmacodynamics and initial efficacy of the potent and selective c-Met inhibitor with the following structure
(§5) [drawing 2] was explored in a phase I, first-in-human trial. […] Extensive additional pre-clinical experiments were performed to understand the nature of the renal effects. Metabolism data pointed into the direction of the rabbit to be a suitable toxicology species.

[7] = Toxicology study of compound A in rabbit; assay type: in vivo
Method: as §5

[8] = Pre-clinical toxicity tests of compound A in dog; assay type: in vivo
Method: as §5

[9] = Pre-clinical toxicity tests of compound A in rat; assay type: in vivo
Method: as §5

[10] = tested on: SNU-5; experiment: Proliferation assay with Alamar blue, Snu-5 cells; assay type: cell-based; conditions: Homo sapiens, 96 h, 4 days incubation
Method: as §2, §3, §4

[11] = biological target: T1, OCT2 (SLC22A2) (Homo sapiens, UniProt O15244); experiment: in vitro; assay type: cell-based
T1 construct: host or cells: Chinese Hamster Ovary (CHO) cells stably transfected with OCT2
T1 sequence (O15244 1-555): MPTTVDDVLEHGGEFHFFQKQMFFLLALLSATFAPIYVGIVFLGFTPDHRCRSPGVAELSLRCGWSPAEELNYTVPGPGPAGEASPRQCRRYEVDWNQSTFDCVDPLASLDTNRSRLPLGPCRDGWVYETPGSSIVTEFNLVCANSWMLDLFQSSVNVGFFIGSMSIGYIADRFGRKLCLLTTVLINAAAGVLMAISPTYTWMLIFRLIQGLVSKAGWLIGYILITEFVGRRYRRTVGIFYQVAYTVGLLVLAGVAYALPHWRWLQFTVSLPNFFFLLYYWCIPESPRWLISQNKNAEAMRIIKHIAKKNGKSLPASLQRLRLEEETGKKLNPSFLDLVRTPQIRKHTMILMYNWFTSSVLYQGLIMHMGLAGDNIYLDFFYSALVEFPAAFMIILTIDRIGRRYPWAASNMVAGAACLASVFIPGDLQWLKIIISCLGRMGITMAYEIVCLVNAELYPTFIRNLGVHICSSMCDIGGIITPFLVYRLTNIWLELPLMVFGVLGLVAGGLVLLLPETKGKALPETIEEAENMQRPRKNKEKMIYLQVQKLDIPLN
Method: This was tested using Chinese Hamster Ovary (CHO) cells, parental or stably transfected with OCT2. ^14C-Metformin was used as OCT2 substrate.
CHO cell lines, parental and stably transfected with OCT2 were obtained from Solvo Biotechnology (Hungary).
CHO cells were cultured in DMEM-F12 (Dulbecco's Modified Eagle Medium) supplemented with 0.03 mg/mL L-Proline, 1% L-Glutamine, penicillin (50-100 U/mL), streptomycin (50-100 μg/mL) and 10% (v/v) foetal calf or bovine serum (FCS) further referred to as “CHO culture medium”.
If needed, non-radiolabeled and radio-labeled compounds were mixed to obtain the proper chemical and radioactive concentration. Proper solvent controls were included.
Both, CHO parental and OCT2 cells were seeded into 24 well plates (1 mL/well, 400 000 cells/well) in CHO culture medium.
Transport experiments were performed in Hank's Balanced Salt Solution^+Ca,+Mg (HBSS^+/+) supplemented with 10 mM HEPES at pH 7.4. All media added to the cells and plates were kept at 37° C.
Before the incubation, the cells in each well were washed twice with 1 mL HBSS^+/++10 mM Hepes pH 7.4 at 37° C. Next, the incubation medium, containing reference substrate and the inhibitors (or inhibitor solvent) was added (250 μL/well).
At the time of dose administration (0 min), 150 μL of the dosing solution was sampled in triplicate for determination of initial concentrations by Liquid Scintillation Counting (LSC). During the incubation period, the plates were kept at 37° C.
To stop the reaction, 1.5 mL ice-cold HBSS^+/+ was added to each well and the liquids were aspirated. Again, to each well 2 mL ice-cold HBSS^+/+ was added and aspirated while keeping the plate angled. Following aspiration of the last well, all the wells were aspirated again taking care of not touching the cells.
To lyse the cells, 250 μL of Mammalian Protein Extraction Reagent (M-PER) lysis buffer was added to each well and the plates were shaken for at least 10 minutes (400 rpm). For LSC, a 150 μL sample/well was taken and for protein analysis a 25 μL sample/well. […]

[12] = tested on: aldehyde oxidase / CYP450; experiment: Metabolisation of compound of formula (I) compared to compound A
Description: This may decrease renal toxicity.
In case of the present compound of formula (I) more of the N-desmethyl metabolite with the following structure is formed

[13] = single oral 10 mg/kg of compound (I)
[14] = single oral 10 mg/kg of compound A

Molecule	AUC(0-inf) [1, 13] [ng·h/mL]	AUC(0-t) [1, 13] [ng·h/mL]	Cmax [1, 13] [ng/mL]	Tmax [1, 13] [h]	MRT [1, 13] [h]	AUC(0-inf) [1, 14] [ng·h/mL]	AUC(0-t) [1, 14] [ng·h/mL]	Cmax [1, 14] [ng/mL]	Tmax [1, 14] [h]	MRT [1, 14] [h]	also measured
Cn1cc(-c2ccc3nnc(C(F)(F)c4ccc5[nH]c(=O)ccc5c4)n3n2)cn1 [Metabolite 2, 6-{Difluoro[6-(1-methyl-1H-pyrazol-4-yl)[1,2,4]triazolo[4,3-b]pyridazin-3-yl]methyl}quinolin-2(1H)-one]	152 ± 81	127 ± 65	39.8 ± 13.1	0.8 ± 0.3	3.8 ± 0.7	439 ± 331	341 ± 259	84.4 ± 55.9	1	5 ± 9	half-life [1, 14]: 180 ± 30 min; solubility ([2]; pH 4.84, aqueous buffer): 1 µg/mL; solubility ([2]; pH 7.33, aqueous buffer): 2 µg/mL
Triton X-100 [reference compound]	–	–	–	–	–	–	–	–	–	–	cytotoxic effects (in words) [3]: viability dropped dramatically; Cell Viability % [3]: 0%; Cell Viability % [4]: 0%
FC(F)(c1ccc2ncccc2c1)c1nnc2ccc(-c3cn[nH]c3)nn12 [N-desmethyl metabolite 4, 6-{Difluoro[6-(1H-pyrazol-4-yl)[1,2,4]triazolo[4,3-b]pyridazin-3-yl]methyl}quinoline]	–	–	–	–	–	1510 ± 190	1490 ± 193	299 ± 146	1.3 ± 0.6	5.7 ± 0.9	–
Cn1cc(-c2ccc3nnc(C(F)(F)c4ccc5ncccc5c4)n3n2)cn1 [Compound A, reference compound]	62.3 ± 47.8	53.7 ± 40.6	27.6 ± 17.4	0.5	3.24 ± 0.76	8220 ± 5740	8190 ± 5740	1830 ± 1360	1	5.2 ± 0.9	half-life [1, 13]: 126 ± 24 min; IC50 [5]: 13.4 nM; toxicity finding in phase I, first-in-human trial [6]: unexpected renal toxicity; effect on renal function [7]: did affect renal function; histological analysis of kidney [7]: crystal formation with consequently degenerative and inflammatory changes in the kidney; pre-clinical toxicity profile [8]: clean toxicity profile; pre-clinical toxicity profile [9]: clean toxicity profile; IC50 [10]: 13.8 nM
[2H]c1ccc2cc(C(F)(F)c3nnc4ccc(-c5cn[nH]c5)nn34)ccc2n1 [N-desmethyl metabolite 3]	2360 ± 450	2310 ± 392	738 ± 447	1.2 ± 0.8	5.1 ± 0.3	–	–	–	–	–	half-life [1, 13]: 264 ± 114 min
C=C[C@H]1C[N@@]2CC[C@H]1C[C@@H]2[C@@H](O)c1ccnc2ccc(OC)cc12 [Quinidine, reference compound]	–	–	–	–	–	–	–	–	–	–	inhibition at 1 min, 300 μM ([11]; human, pH 7.4, inhibition of 14C-Metformin uptake): 85.5%
[2H]c1ccc2cc(C(F)(F)c3nnc4ccc(-c5cnn(C)c5)nn34)ccc2n1 [Compound of formula (I)]	8570 ± 6440	8460 ± 6520	3570 ± 2320	0.5	4.6 ± 1	–	–	–	–	–	cytotoxic effects (in words) [3]: no cytotoxic effects were observed; Cell Viability % [3]: 104%; formation of insoluble/less soluble aldehyde oxidase mediated metabolites [12]: down regulated; IC50 [5]: 12 nM; Cell Viability % [4]: 103%; IC50 [10]: 13.2 nM; IC50 [11]: 670 ± 20 nM; inhibition of the 14C-Metformin uptake in OCT2 cells (in words) [11]: shows inhibition
O=c1ccc2cc(C(F)(F)c3nnc4ccc(-c5cn[nH]c5)nn34)ccc2[nH]1 [Metabolite 1, 6-{Difluoro[6-(1H-pyrazol-4-yl)[1,2,4]triazolo[4,3-b]pyridazin-3-yl]methyl}quinolin-2(1H)-one]	409 ± 7	–	57.5 ± 34.2	2.3 ± 1.5	7 ± 0.7	1050 ± 421	934 ± 336	126 ± 80	2.7 ± 1.2	7.8 ± 1.4	–
